Test results from patent US10662159B2, “ABHD6 and dual ABHD6/MGL inhibitors and their uses” (MAKScientific, LLC, priority 2017, dated 2020).

Experiments:
Format in all cases: biochemical
hABHD6 = hABHD6 (Homo sapiens (Human), UniProt Q9BV23); assay: Fluorescent assay for hABHD6 (AHMMCE substrate hydrolysis); details: membrane fraction containing full-length hABHD6, 20 μM AHMMCE; read-out: ABHD6 Inhibition IC50
Protocol: (§1) Certain compounds were tested for their ABHD6 and dual ABHD6/MGL inhibitory activity, which is expressed as % of inhibition or IC50 values in Table 1. The percentage of inhibition describes the percentage by which the inhibitor reduces the velocity/rate of 2-AG hydrolysis by ABHD6, and MGL or AEA hydrolysis by FAAH. […] The lower the IC50 values, the higher its inhibitory activity. A detailed description of the methods used to test inhibitory activity of compounds is given below.
Fluorescent Assays Protocol for hABHD6
Initial Fluorescent Inhibition Assay (3-Point)—
In each well of a 96-well plate 8 μL of membrane fraction containing full-length hABHD6 (1 μg total protein) was mixed with 168 μL of assay buffer (50 mM Tris-HCl, pH 7.6), and 20 μL of diluted compound (diluted in a dilution buffer consisting of 50% DMSO/50% assay buffer v/v). Each plate was incubated at RT for 15 minutes before adding 4 μL of 1 mM AHMMCE substrate (final concentration of 20 μM AHMMCE and final volume of 200 μL). The reaction was allowed to proceed for 1 hr at RT before the fluorescence was read at λex 360 nm and λem 460 nm and the inhibition calculated. Each experiment can test 8 compounds at three concentrations (usually 10 μM, 1 μM, and 100 nM).
IC50 Determination Assay (8-Point)—
A more detailed assay with an extended range tests compounds over 8 concentrations depending on the pre-determined approximate IC50 value from the initial screen. […] The assay was conducted in 96 well plate with each well containing the same reaction mixture detailed above in the 3-point screen. The relative fluorescence is quantified into coumarin produced by using a standard curve of HMMC in triplicate on each plate. Results are normalized to the negative control wells and the IC50 is determined using a non-linear regression curve fit in Prism, version 5 (GraphPad, San Diego, Calif.).

hMGL = hMGL (Homo sapiens (Human), UniProt Q99685); assay: Fluorescent assay for hMGL (AHMMCE substrate hydrolysis); details: E. coli lysate containing hMGL, read-out: hMGL Inhibition IC50
hMGL, sequence (Q99685 whole entry): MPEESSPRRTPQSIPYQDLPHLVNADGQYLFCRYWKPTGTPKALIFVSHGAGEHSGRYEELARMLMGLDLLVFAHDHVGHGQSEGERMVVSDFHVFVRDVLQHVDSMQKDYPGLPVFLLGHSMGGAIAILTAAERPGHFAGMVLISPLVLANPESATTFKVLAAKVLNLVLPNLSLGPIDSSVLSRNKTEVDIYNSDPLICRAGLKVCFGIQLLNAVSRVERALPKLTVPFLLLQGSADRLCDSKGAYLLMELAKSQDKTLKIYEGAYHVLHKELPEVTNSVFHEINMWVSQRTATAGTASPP
Protocol: as §1
Preparation of Human MAGL (hMAGL)
Fluorescent Assay Protocol for hMGL
This medium throughput assay involved a 96-well plate format in which hMGL activity was monitored by the hydrolysis of the substrate […] (AHMMCE) to form the fluorescent product, coumarin. […] Upon the addition of AHMMCE, the reaction was incubated at 25° C. for 120 min; fluorescence readings were taken every 15 min at 360 nm/460 nm (λexcitation/λemission) using a Synergy HT Plate Reader (Bio-Tek, Winooski, Vt.). […] External standards were used to convert relative fluorescence units to the amount of 4-methylcoumarin formed. All MGL assays were performed in triplicate for each inhibitor concentration, and IC50 values were calculated using Prizm software (GraphPad Software, Inc., San Diego, Calif.).

Rat ΔTM FAAH = Rat ΔTM FAAH (Rattus norvegicus (Rat), UniProt P97612); assay: Fluorescent assay for rat ΔTM FAAH (AAMCA substrate); details: ΔTM rFAAH, AAMCA 20 μM; read-out: rFAAH Inhibition IC50
Rat ΔTM FAAH, sequence (P97612 30-579): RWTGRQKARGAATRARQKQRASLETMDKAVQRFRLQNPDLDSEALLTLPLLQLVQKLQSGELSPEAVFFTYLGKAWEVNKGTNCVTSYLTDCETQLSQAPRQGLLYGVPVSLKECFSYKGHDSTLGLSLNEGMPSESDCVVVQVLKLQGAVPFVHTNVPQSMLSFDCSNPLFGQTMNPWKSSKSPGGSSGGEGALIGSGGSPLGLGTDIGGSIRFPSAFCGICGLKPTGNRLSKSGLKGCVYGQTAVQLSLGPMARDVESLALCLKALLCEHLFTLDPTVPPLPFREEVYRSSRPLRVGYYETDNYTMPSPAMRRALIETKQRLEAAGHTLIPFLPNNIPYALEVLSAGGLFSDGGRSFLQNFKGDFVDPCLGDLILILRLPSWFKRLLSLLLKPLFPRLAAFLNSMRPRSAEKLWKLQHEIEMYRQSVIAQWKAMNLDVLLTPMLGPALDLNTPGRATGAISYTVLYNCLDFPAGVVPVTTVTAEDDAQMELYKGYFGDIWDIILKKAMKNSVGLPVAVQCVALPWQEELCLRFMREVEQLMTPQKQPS
Protocol: Certain compounds were tested for their ABHD6 and dual ABHD6/MGL inhibitory activity, which is expressed as % of inhibition or IC50 values in Table 1. The percentage of inhibition describes the percentage by which the inhibitor reduces the velocity/rate of 2-AG hydrolysis by ABHD6, and MGL or AEA hydrolysis by FAAH. The IC50 is the concentration of the inhibitor, which results in 50% inhibition of the velocity/rate of 2-AG hydrolysis by ABHD6 or MGL. The IC50 is the concentration of the inhibitor, which results in 50% inhibition of the velocity/rate of AEA hydrolysis by FAAH. The lower the IC50 values, the higher its inhibitory activity. A detailed description of the methods used to test inhibitory activity of compounds is given below.
Example 79. Preparation of Transmembrane Domain-Deleted Rat FAAH (ΔTM rFAAH)
Rat ΔTM FAAH was expressed in E. coli cells and purified using the procedure disclosed by Patricelli et al. Biochemistry (1998) 37: 15177-15187.
Example 81. Fluorescent Assay Protocol for Rat ΔTM FAAH
The fluorescence reading at the 3 hour time point (linear enzyme kinetics) was used to calculate percent inhibition based on control assays without inhibitor present. All FAAH assays were performed in triplicate for each inhibitor concentration, and IC50 values determined using Prizm software (GraphPad Software, Inc.).

hABHD6, sequence (Q9BV23 whole entry): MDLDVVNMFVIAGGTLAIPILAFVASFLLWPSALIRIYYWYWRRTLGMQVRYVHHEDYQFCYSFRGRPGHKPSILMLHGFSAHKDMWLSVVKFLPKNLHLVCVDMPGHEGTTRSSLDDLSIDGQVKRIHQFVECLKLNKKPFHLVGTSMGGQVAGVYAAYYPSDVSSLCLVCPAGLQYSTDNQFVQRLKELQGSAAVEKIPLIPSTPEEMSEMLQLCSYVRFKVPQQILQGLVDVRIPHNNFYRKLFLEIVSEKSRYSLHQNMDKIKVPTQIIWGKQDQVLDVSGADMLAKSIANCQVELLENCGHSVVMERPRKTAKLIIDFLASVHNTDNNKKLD

## O=C(OC(CF)CF)N1CCc2c(Br)cccc2C1 [Example 5, 1,3-Difluoropropan-2-yl 5-bromo-3,4-dihydroisoquinoline-2(1H)-carboxylate]
hABHD6
  IC50: > 1000 nM
hMGL
  IC50: > 1000 nM
Rat ΔTM FAAH
  IC50: > 1000 nM

## COc1cccc2c1CCN(C(=O)OC(C(F)(F)F)C(F)(F)F)C2 [Example 22, 1,1,1,3,3,3-Hexafluoropropan-2-yl 5-methoxy-3,4-dihydroisoquinoline-2(1H)-carboxylate]
hABHD6
  IC50: 10 to 100 nM
hMGL
  IC50: > 1000 nM
Rat ΔTM FAAH
  IC50: > 1000 nM

## COc1ccc2c(c1)CCN(C(=O)OC(C(F)(F)F)C(F)(F)F)C2 [Example 23, 1,1,1,3,3,3-Hexafluoropropan-2-yl 6-methoxy-3,4-dihydroisoquinoline-2(1H)-carboxylate]
hABHD6
  IC50: 10 to 100 nM
hMGL
  IC50: > 1000 nM
Rat ΔTM FAAH
  IC50: > 1000 nM

## O=C(OC(C(F)(F)F)C(F)(F)F)N1Cc2ccc(-c3ccccc3)cc2C1 [Example 25, 1,1,1,3,3,3-Hexafluoropropan-2-yl 5-phenylisoindoline-2-carboxylate]
hABHD6
  IC50: 10 to 100 nM
hMGL
  IC50: > 1000 nM
Rat ΔTM FAAH
  IC50: > 1000 nM

## O=C(OC(C(F)(F)F)C(F)(F)F)N1CCc2c(cccc2-c2ccccc2)C1 [Example 28, 1,1,1,3,3,3-Hexafluoropropan-2-yl 5-phenyl-3,4-dihydroisoquinoline-2(1H)-carboxylate]
hABHD6
  IC50: 100 to 1000 nM
hMGL
  IC50: > 1000 nM
Rat ΔTM FAAH
  IC50: > 1000 nM

## CN1CCN(c2ccc3c(c2)CN(C(=O)OC(C(F)(F)F)C(F)(F)F)C3)CC1 [Example 29, 1,1,1,3,3,3-Hexafluoropropan-2-yl 5-(4-methylpiperazin-1-yl)isoindoline-2-carboxylate]
hABHD6
  IC50: 100 to 1000 nM
hMGL
  IC50: > 1000 nM
Rat ΔTM FAAH
  IC50: > 1000 nM

## O=C(OC(C(F)(F)F)C(F)(F)F)N1Cc2ccc(N3CCCC3)cc2C1 [Example 30, 1,1,1,3,3,3-Hexafluoropropan-2-yl 5-(pyrrolidin-1-yl)isoindoline-2-carboxylate]
hABHD6
  IC50: 10 to 100 nM
hMGL
  IC50: > 1000 nM
Rat ΔTM FAAH
  IC50: > 1000 nM

## O=C(OC(C(F)(F)F)C(F)(F)F)N1Cc2ccc(N3CCS(=O)(=O)CC3)cc2C1 [Example 31, 1,1,1,3,3,3-Hexafluoropropan-2-yl 5-(1,1-dioxidothiomorpholino)isoindoline-2-carboxylate]
hABHD6
  IC50: 10 to 100 nM
Rat ΔTM FAAH
  IC50: > 1000 nM

## O=C(OC(C(F)(F)F)C(F)(F)F)N1Cc2ccc(N3CCOCC3)cc2C1 [Example 32, 1,1,1,3,3,3-Hexafluoropropan-2-yl 5-morpholinoisoindoline-2-carboxylate]
hABHD6
  IC50: 10 to 100 nM
hMGL
  IC50: > 1000 nM
Rat ΔTM FAAH
  IC50: > 1000 nM

## CC1(C)C2C(=O)N(OC(=O)N3CCc4c(Br)cccc4C3)C(=O)C21 (centres unmarked) [Example 35, 6,6-Dimethyl-2,4-dioxo-3-azabicyclo[3.1.0]hexan-3-yl 5-bromo-3,4-dihydroisoquinoline-2(1H)-carboxylate]
hABHD6
  IC50: 10 to 100 nM
hMGL
  IC50: > 1000 nM
Rat ΔTM FAAH
  IC50: > 1000 nM

## O=C1C2CC2C(=O)N1ON1CCc2c(Br)cccc2C1 (centres unmarked) [Example 37, 3-((5-Bromo-3,4-dihydroisoquinolin-2(1H)-yl)oxy)-3-azabicyclo[3.1.0]hexane-2,4-dione]
hABHD6
  IC50: 100 to 1000 nM
hMGL
  IC50: > 1000 nM
Rat ΔTM FAAH
  IC50: > 1000 nM

## COc1ccc2c(c1)CN(C(=O)ON1C(=O)C3C(C1=O)C3(C)C)C2 (centres unmarked) [Example 38, 6,6-Dimethyl-2,4-dioxo-3-azabicyclo[3.1.0]hexan-3-yl 5-methoxyisoindoline-2-carboxylate]
hABHD6
  IC50: > 1000 nM
hMGL
  IC50: > 1000 nM
Rat ΔTM FAAH
  IC50: > 1000 nM

## CC1(C)C2C(=O)N(OC(=O)N3Cc4ccc(N5CCOCC5)cc4C3)C(=O)C21 (centres unmarked) [Example 39, 6,6-Dimethyl-2,4-dioxo-3-azabicyclo[3.1.0]hexan-3-yl 5-morpholinoisoindoline-2-carboxylate]
hABHD6
  IC50: 10 to 100 nM
hMGL
  IC50: > 1000 nM
Rat ΔTM FAAH
  IC50: > 1000 nM

## O=C(O[C@H](CO)C(F)(F)F)N1CCc2c(Br)cccc2C1 [Example 40, (R)-1,1,1-trifluoro-3-hydroxypropan-2-yl 5-bromo-3,4-dihydroisoquinoline-2(1H)-carboxylate]
hABHD6
  IC50: 10 to 100 nM
hMGL
  IC50: > 1000 nM
Rat ΔTM FAAH
  IC50: > 1000 nM

## O=C(OC(C(F)(F)F)C(F)(F)F)N1CCc2c(cccc2OCCCF)C1 [Example 41, 1,1,1,3,3,3-Hexafluoropropan-2-yl 5-(3-fluoropropoxy)-3,4-dihydroisoquinoline-2(1H)-carboxylate]
hABHD6
  IC50: 10 to 100 nM
hMGL
  IC50: > 1000 nM
Rat ΔTM FAAH
  IC50: > 1000 nM

## O=C(OC(C(F)(F)F)C(F)(F)F)N1Cc2ccc(OCCCF)cc2C1 [Example 42, 1,1,1,3,3,3-Hexafluoropropan-2-yl 5-(3-fluoropropoxy)isoindoline-2-carboxylate]
hABHD6
  IC50: 10 to 100 nM
hMGL
  IC50: > 1000 nM
Rat ΔTM FAAH
  IC50: > 1000 nM

## O=C(OC(C(F)(F)F)C(F)(F)F)N1Cc2ccc(OCC3CC3)cc2C1 [Example 43, 1,1,1,3,3,3-Hexafluoropropan-2-yl 5-(cyclopropylmethoxy)isoindoline-2-carboxylate]
hABHD6
  IC50: 10 to 100 nM
hMGL
  IC50: > 1000 nM
Rat ΔTM FAAH
  IC50: > 1000 nM

## O=C(OC(C(F)(F)F)C(F)(F)F)N1Cc2ccc(OCCN3CCOCC3)cc2C1 [Example 44, 1,1,1,3,3,3-Hexafluoropropan-2-yl 5-(2-morpholinoethoxy)isoindoline-2-carboxylate]
hABHD6
  IC50: 100 to 1000 nM
hMGL
  IC50: > 1000 nM
Rat ΔTM FAAH
  IC50: > 1000 nM

## CN(C)CCOc1ccc2c(c1)CN(C(=O)OC(C(F)(F)F)C(F)(F)F)C2 [Example 46, 1,1,1,3,3,3-Hexafluoropropan-2-yl 5-(2-(dimethylamino)ethoxy)isoindoline-2-carboxylate]
hABHD6
  IC50: 10 to 100 nM
hMGL
  IC50: 10 to 100 nM
Rat ΔTM FAAH
  IC50: > 1000 nM

## O=C(OC(C(F)(F)F)C(F)(F)F)N1Cc2ccc(NCCN3CCOCC3)cc2C1 [Example 47, 1,1,1,3,3,3-Hexafluoropropan-2-yl 5-((2-morpholinoethyl)amino)isoindoline-2-carboxylate]
hABHD6
  IC50: 10 to 100 nM
hMGL
  IC50: > 1000 nM
Rat ΔTM FAAH
  IC50: > 1000 nM

## O=C(OC(C(F)(F)F)C(F)(F)F)N1Cc2ccc(OCCN3CCCCC3)cc2C1 [Example 48, 1,1,1,3,3,3-Hexafluoropropan-2-yl 5-(2-(piperidin-1-yl)ethoxy)isoindoline-2-carboxylate]
hABHD6
  IC50: 10 to 100 nM
hMGL
  IC50: 10 to 100 nM
Rat ΔTM FAAH
  IC50: > 1000 nM

## O=C(OC(C(F)(F)F)C(F)(F)F)N1Cc2ccc(OCCN3CCCC3)cc2C1 [Example 49, 1,1,1,3,3,3-Hexafluoropropan-2-yl 5-(2-(pyrrolidin-1-yl)ethoxy)isoindoline-2-carboxylate]
hABHD6
  IC50: 10 to 100 nM
hMGL
  IC50: 10 to 100 nM
Rat ΔTM FAAH
  IC50: > 1000 nM

## O=C(COc1ccc2c(c1)CN(C(=O)OC(C(F)(F)F)C(F)(F)F)C2)N1CCOCC1 [Example 50, 1,1,1,3,3,3-Hexafluoropropan-2-yl 5-(2-morpholino-2-oxoethoxy)isoindoline-2-carboxylate]
hABHD6
  IC50: 10 to 100 nM
hMGL
  IC50: 10 to 100 nM
Rat ΔTM FAAH
  IC50: > 1000 nM

## O=C(OC(C(F)(F)F)C(F)(F)F)N1CC2(CCC(Oc3cccc(F)c3)C2)C1 (centres unmarked) [Example 59, 1,1,1,3,3,3-Hexafluoropropan-2-yl 6-(3-fluorophenoxy)-2-azaspiro[3.4]octane-2-carboxylate]
hABHD6
  IC50: 10 to 100 nM
hMGL
  IC50: 10 to 100 nM
Rat ΔTM FAAH
  IC50: 10 to 100 nM
